Where a name gives a salt, the structure may show the parent alone.

The target in test [1] is Human KDR (residues 790-1356) (Homo sapiens (Human), UniProt P35968). The test can be described thus: Human KDR kinase assay, HTRF KinEase (Example B-2). In kind it is biochemical. Conditions: protocol of Example B-2 (other compounds). The procedure, abridged: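 Human KDR residues 790-1356 (0.1 ng/well) in buffer with 5 mM MgCl2, 1 mM MnCl2, 1 mM DTT, biotinylated peptide substrate, ATP at Km (4.0 μM), 3% DMSO, 10 compound concentrations; 40 min, room temperature. EDTA stop, streptavidin-XL665/Eu-TK antibody HTRF read 665/620 nm; 4-parameter IC50.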
(In general: Time-resolved FRET reads energy transfer from a long-lived donor to a nearby acceptor.)

In test [2] the target is KDR (phospho-KDR, VEGF165-stimulated HUVEC cells) (Homo sapiens (Human), UniProt P35968). The test can be described thus: KDR autophosphorylation ELISA in HUVEC cells (Example G). The settings on record: cellular activity; KDR autophosphorylation ELISA in HUVEC cells. It counts as cell-based. Put shortly:
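HUVEC cells, serum-starved 24 h, were treated 1 h with an 8-point compound dilution (0.3% DMSO) and then stimulated with 100 ng/mL VEGF165 for 5 min. Phospho-KDR in lysates was quantified by sandwich ELISA against a phospho-KDR standard. IC50 from a 4-parameter logistic fit, normalised between stimulated DMSO and unstimulated controls.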
For orientation: In an ELISA, binding on a coated surface is turned into a signal by an enzyme label.

KDR (phospho-KDR, VEGF165-stimulated HUVEC cells), sequence (P35968 20-1356): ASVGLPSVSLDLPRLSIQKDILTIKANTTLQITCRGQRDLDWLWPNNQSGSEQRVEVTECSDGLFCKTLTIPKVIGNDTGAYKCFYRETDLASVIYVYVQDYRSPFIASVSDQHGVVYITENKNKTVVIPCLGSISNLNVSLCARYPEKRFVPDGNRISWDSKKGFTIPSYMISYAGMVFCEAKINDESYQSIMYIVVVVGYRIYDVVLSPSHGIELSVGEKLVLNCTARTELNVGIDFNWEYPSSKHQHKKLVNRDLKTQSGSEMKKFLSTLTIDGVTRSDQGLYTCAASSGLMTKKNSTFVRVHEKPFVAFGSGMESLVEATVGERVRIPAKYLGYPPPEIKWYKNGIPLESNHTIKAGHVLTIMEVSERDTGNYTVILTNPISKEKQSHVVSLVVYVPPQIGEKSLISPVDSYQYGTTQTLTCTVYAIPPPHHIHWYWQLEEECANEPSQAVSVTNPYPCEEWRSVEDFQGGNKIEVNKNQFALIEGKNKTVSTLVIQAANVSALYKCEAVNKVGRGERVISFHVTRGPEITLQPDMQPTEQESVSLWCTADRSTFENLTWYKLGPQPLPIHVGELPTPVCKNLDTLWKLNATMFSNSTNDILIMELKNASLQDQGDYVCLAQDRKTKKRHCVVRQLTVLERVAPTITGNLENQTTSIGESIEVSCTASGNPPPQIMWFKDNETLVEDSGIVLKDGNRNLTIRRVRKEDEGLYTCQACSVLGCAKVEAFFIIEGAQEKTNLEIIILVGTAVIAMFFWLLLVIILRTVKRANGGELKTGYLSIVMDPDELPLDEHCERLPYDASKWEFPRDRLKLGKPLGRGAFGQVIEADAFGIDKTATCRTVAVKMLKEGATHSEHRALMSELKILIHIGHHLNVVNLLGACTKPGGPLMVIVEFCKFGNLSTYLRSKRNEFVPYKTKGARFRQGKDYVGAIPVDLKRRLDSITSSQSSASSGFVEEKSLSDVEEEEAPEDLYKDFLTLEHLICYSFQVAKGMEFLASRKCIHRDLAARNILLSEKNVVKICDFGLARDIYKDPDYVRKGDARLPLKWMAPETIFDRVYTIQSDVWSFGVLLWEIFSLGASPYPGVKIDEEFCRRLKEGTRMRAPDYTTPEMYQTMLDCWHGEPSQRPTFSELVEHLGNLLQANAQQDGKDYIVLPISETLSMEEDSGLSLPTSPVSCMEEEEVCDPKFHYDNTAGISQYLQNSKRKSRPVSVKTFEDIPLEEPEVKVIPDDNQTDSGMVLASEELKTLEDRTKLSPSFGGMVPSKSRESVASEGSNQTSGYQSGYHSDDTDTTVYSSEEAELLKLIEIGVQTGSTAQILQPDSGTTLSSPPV
Human KDR (residues 790-1356), sequence (P35968 790-1356): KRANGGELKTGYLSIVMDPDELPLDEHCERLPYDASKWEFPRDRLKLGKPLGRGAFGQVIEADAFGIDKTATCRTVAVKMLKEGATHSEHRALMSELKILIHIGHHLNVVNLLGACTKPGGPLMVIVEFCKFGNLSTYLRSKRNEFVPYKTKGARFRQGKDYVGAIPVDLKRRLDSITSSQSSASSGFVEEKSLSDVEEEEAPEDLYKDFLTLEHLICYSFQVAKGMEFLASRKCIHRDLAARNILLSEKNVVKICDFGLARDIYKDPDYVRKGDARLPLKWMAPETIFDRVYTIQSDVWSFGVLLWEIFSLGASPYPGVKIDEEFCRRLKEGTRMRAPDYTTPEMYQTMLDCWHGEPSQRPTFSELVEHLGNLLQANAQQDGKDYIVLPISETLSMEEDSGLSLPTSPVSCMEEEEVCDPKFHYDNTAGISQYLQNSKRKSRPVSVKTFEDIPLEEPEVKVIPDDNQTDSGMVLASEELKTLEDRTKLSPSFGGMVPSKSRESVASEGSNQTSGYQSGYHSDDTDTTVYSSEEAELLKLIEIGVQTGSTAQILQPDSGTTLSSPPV

Consider `COc1cc2nccc(Oc3ccc(NC(=O)c4c(C)cc(C)n(-c5ccc(F)cc5C)c4=O)cc3F)c2nc1OC` [Compound 298, N-[4-[(6,7-Dimethoxy-1,5-naphthyridin-4-yl)oxy]-3-fluorophenyl]-1-(4-fluoro-2-methylphenyl)-4,6-dimethyl-2-oxopyridine-3-carboxamide], for which the half-inhibitory concentration (IC50) in test [1] and in test [2] was below 100 nM each time.
In the case of `COc1ccc2nccc(Oc3ccc(NC(=O)c4c(C)cc(C)n(-c5ccc(F)cc5)c4=O)cc3)c2n1` [Compound 290, 1-(4-Fluorophenyl)-N-[4-[(6-methoxy-1,5-naphthyridin-4-yl)oxy]phenyl]-4,6-dimethyl-2-oxopyridine-3-carboxamide], the IC50 in test [1] and in test [2] was below 100 nM throughout.
In the case of `COc1cnc2c(Oc3ccc(NC(=O)c4cnc(C)n(-c5ccc(F)cc5)c4=O)cc3)ccnc2c1` [Compound 266, 1-(4-Fluorophenyl)-N-[4-[(7-methoxy-1,5-naphthyridin-4-yl)oxy]phenyl]-2-methyl-6-oxopyrimidine-5-carboxamide], the half-maximal inhibitory concentration (IC50) in test [1] and in test [2] was above 300 nM each time.
With `COc1ccc2nccc(Oc3ccc(NC(=O)c4cnc(C)c(-c5ccc(F)cc5)c4O)cc3)c2n1` [Compound 342, 5-(4-fluorophenyl)-4-hydroxy-N-[4-[(6-methoxy-1,5-naphthyridin-4-yl)oxy]phenyl]-6-methylpyridine-3-carboxamide], the IC50 (usually the point on the concentration scale where inhibition reaches its midpoint) is 100 to 300 nM in test [1] and below 100 nM in test [2].
For `Cc1nc(C)n(-c2ccc(F)cc2)c(=O)c1C(=O)Nc1ccc(Oc2ccnc3cc(OCc4ccccc4)cnc23)c(F)c1` [Compound 278, 1-(4-Fluorophenyl)-N-[3-fluoro-4-[(7-phenylmethoxy-1,5-naphthyridin-4-yl)oxy]phenyl]-2,4-dimethyl-6-oxopyrimidine-5-carboxamide], in that order: below 100 nM and below 100 nM.
On to `CCn1cc(C(=O)Nc2ccc(Oc3ccnc4cc(OC)cnc34)cc2)c(=O)c(-c2ccc(F)cc2)c1CO` [Compound 274, 1-Ethyl-5-(4-fluorophenyl)-6-(hydroxymethyl)-N-[4-[(7-methoxy-1,5-naphthyridin-4-yl)oxy]phenyl]-4-oxopyridine-3-carboxamide], for which the IC50 in test [1] and in test [2] was above 300 nM in each case.
For the molecule `Cc1nc(C)c(-c2ccc(F)cc2)c(O)c1C(=O)Nc1ccc(Oc2ccnc3ccc(OCCN4CCOCC4)nc23)c(F)c1` [Compound 355, N-[3-fluoro-4-[[6-(2-morpholin-4-ylethoxy)-1,5-naphthyridin-4-yl)oxy]phenyl]-5-(4-fluorophenyl)-4-hydroxy-2,6-dimethylpyridine-3-carboxamide], the IC50 in test [1] and in test [2] was below 100 nM in each case.
Take `COc1cnc2c(Oc3ccc(NC(=O)c4c(C)cc(C)n(-c5ccc(F)cc5)c4=O)cc3)ccnc2c1` [Compound 289, 1-(4-Fluorophenyl)-N-[4-[(7-methoxy-1,5-naphthyridin-4-yl)oxy]phenyl]-4,6-dimethyl-2-oxopyridine-3-carboxamide]: the IC50 in test [1] and in test [2] was below 100 nM throughout.
`COc1cc2nccc(Oc3ccc(NC(=O)c4c(C)ccn(-c5ccc(F)cc5)c4=O)cc3F)c2nc1OC` [Compound 286, N-[4-[(6,7-Dimethoxy-1,5-naphthyridin-4-yl)oxy]-3-fluorophenyl]-1-(4-fluorophenyl)-4-methyl-2-oxopyridine-3-carboxamide]: the IC50 in test [1] and in test [2] was below 100 nM in each case.
As to `COc1cc2nccc(Oc3ccc(NC(=O)c4cn(C)cc(-c5ccccc5)c4=O)cc3)c2nc1OC` [Compound 39, N-[4-[(6,7-Dimethoxy-1,5-naphthyridin-4-yl)oxy]phenyl]-1-methyl-4-oxo-5-phenylpyridine-3-carboxamide hydrochloride], the IC50 in test [1] and in test [2] was below 100 nM throughout.
Turning to `COc1cnc2c(Oc3ccc(NC(=O)c4ncc(C)n(-c5ccc(F)cc5)c4=O)cc3)ccnc2c1` [Compound 263, 4-(4-Fluorophenyl)-N-[4-[(7-methoxy-1,5-naphthyridin-4-yl)oxy]phenyl]-5-methyl-3-oxopyrazine-2-carboxamide], the IC50 in test [1] and in test [2] was above 300 nM each time.
As to `COc1ccc2nccc(Oc3ccc(NC(=O)c4ccc(C)n(-c5ccc(F)cc5C)c4=O)cc3)c2n1` [Compound 276, 1-(4-Fluoro-2-methylphenyl)-N-[4-[(6-methoxy-1,5-naphthyridin-4-yl)oxy]phenyl]-6-methyl-2-oxopyridine-3-carboxamide], the IC50 in test [1] is above 300 nM; in test [2], below 100 nM.
With `COc1cnc2c(Oc3ccc(NC(=O)c4cn(C)cc(-c5ccccc5)c4=O)cc3F)ccnc2c1` [Compound 40, N-[3-Fluoro-4-[(7-methoxy-1,5-naphthyridin-4-yl)oxy]phenyl]-1-methyl-4-oxo-5-phenylpyridine-3-carboxamide hydrochloride], the IC50 is above 300 nM in test [1] and below 100 nM in test [2].
The matching figures for `Cc1cc(C)n(-c2ccc(F)cc2)c(=O)c1C(=O)Nc1ccc(Oc2ccnc3cccnc23)c(F)c1` [Compound 295, N-[3-Fluoro-4-(1,5-naphthyridin-4-yloxy)phenyl]-1-(4-fluorophenyl)-4,6-dimethyl-2-oxopyridine-3-carboxamide]: below 100 nM and below 100 nM.
Regarding `COc1cc2nccc(Oc3ccc(NC(=O)c4cn(C)c(CO)c(-c5ccc(F)cc5C)c4=O)cc3F)c2nc1OC` [Compound 282, N-[4-[(6,7-Dimethoxy-1,5-naphthyridin-4-yl)oxy]-3-fluorophenyl]-5-(4-fluoro-2-methylphenyl)-6-(hydroxymethyl)-1-methyl-4-oxopyridine-3-carboxamide], the IC50 was above 300 nM in test [1] and below 100 nM in test [2].
The matching figures for `CCOc1c(C(=O)Nc2ccc(Oc3ccnc4cc(OC)c(OC)nc34)c(F)c2)c(=O)c(-c2ccc(F)cc2)c(C)n1C` [Compound 369, N-[4-[(6,7-dimethoxy-1,5-naphthyridin-4-yl)oxy]-3-fluorophenyl]-2-ethoxy-5-(4-fluorophenyl)-1,6-dimethyl-4-oxopyridine-3-carboxamide]: 100 to 300 nM and below 100 nM.
As for `COCCOc1ccc2nccc(Oc3ccc(NC(=O)c4ccc(C)n(-c5ccc(F)cc5)c4=O)cc3F)c2n1` [Compound 350, N-[3-fluoro-4-[[6-(2-methoxyethoxy)-1,5-naphthyridin-4-yl]oxy]phenyl]-1-(4-fluorophenyl)-6-methyl-2-oxopyridine-3-carboxamide], the IC50 in test [1] is 100 to 300 nM; in test [2] it was below 100 nM.
As for `COc1cc2nccc(Oc3ccc(NC(=O)c4cccn(-c5ccc(F)cc5)c4=O)cc3F)c2nc1OC` [Compound 293, N-[4-[(6,7-Dimethoxy-1,5-naphthyridin-4-yl)oxy]-3-fluorophenyl]-1-(4-fluorophenyl)-2-oxopyridine-3-carboxamide], the IC50 in test [1] and in test [2] was below 100 nM each time.
For the molecule `COCc1c(-c2ccc(F)cc2)c(=O)c(C(=O)Nc2ccc(Oc3ccnc4cc(OC)cnc34)c(F)c2)cn1C` [Compound 270, N-[3-Fluoro-4-[(7-methoxy-1,5-naphthyridin-4-yl)oxy]phenyl]-5-(4-fluorophenyl)-6-(methoxymethyl)-1-methyl-4-oxopyridine-3-carboxamide], the IC50 in test [1] and in test [2] was above 300 nM each time.
Turning to `COc1ccc2nccc(Oc3ccc(NC(=O)c4cnc(C)c(-c5ccc(F)cc5)c4O)cc3F)c2c1` [Compound 347, N-[3-fluoro-4-(6-methoxyquinolin-4-yl)oxyphenyl]-5-(4-fluorophenyl)-4-hydroxy-6-methylpyridine-3-carboxamide], the IC50 in test [1] was 100 to 300 nM; in test [2] it was below 100 nM.
The matching figures for `COc1cc2nccc(Oc3ccc(NC(=O)c4cn(C)cc(-c5ccc(Cl)cc5)c4=O)cc3F)c2nc1OC` [Compound 38, 5-(4-Chlorophenyl)-N-[4-[(6,7-dimethoxy-1,5-naphthyridin-4-yl)oxy]-3-fluorophenyl]-1-methyl-4-oxopyridine-3-carboxamide hydrochloride]: 100 to 300 nM and below 100 nM.
On to `COc1ccc2nccc(Oc3ccc(NC(=O)c4c(C)cc(C)n(-c5ccc(F)cc5C)c4=O)cc3F)c2n1` [Compound 296, N-[3-Fluoro-4-[(6-methoxy-1,5-naphthyridin-4-yl)oxy]phenyl]-1-(4-fluoro-2-methylphenyl)-4,6-dimethyl-2-oxopyridine-3-carboxamide], for which the IC50 is 100 to 300 nM in test [1] and below 100 nM in test [2].
The matching figures for `COc1cc2nccc(Oc3ccc(NC(=O)c4cn(C)c(C)c(-c5ccc(F)cc5)c4=O)c(F)c3)c2nc1OC` [Compound 389, N-[4-[(6,7-dimethoxy-1,5-naphthyridin-4-yl)oxy]-2-fluorophenyl]-5-(4-fluorophenyl)-1,6-dimethyl-4-oxopyridine-3-carboxamide]: above 300 nM and above 300 nM.
The matching figures for `COc1ccc2nccc(Oc3ccc(NC(=O)c4cn(C)c(C)c(-c5ccc(F)cc5)c4=O)cc3)c2n1` [Compound 356, 5-(4-fluorophenyl)-N-[4-[(6-methoxy-1,5-naphthyridin-4-yl)oxy]phenyl]-1,6-dimethyl-4-oxopyridine-3-carboxamide]: above 300 nM and above 300 nM.
